The values that follow come from PMC9266368, “Synthesis and Biological Evaluation of Small Molecules as Potential Anticancer Multitarget Agents” (International Journal of Molecular Sciences, 2022).

The subject of assay [1] is HEK-293 (human embryonic kidney cells). The assay can be described thus: MTT cell viability assay, HEK-293. Format: cell-based. The note with it: HEK293, 48 h, 2 days incubation, non-tumor cell line, average ±SD of three experiments. Put shortly: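 Cells seeded at 3 × 10^3 (A549, HEK-293) or 5 × 10^3 (HT-29, MCF-7) per well and exposed to serial compound dilutions for 2 days at 37 °C, 5% CO2. MTT added for 3 h, formazan dissolved in DMSO, absorbance at 550 nm; viability relative to untreated cells, IC50 from three independent experiments.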

The target in assay [2] is T1, membrane VEGFR-2 (mVEGFR-2) (Homo sapiens, UniProt P35968).
T1 construct: endogenous in cells; host or cells: HT-29, A-549, MCF-7
T1 sequence (P35968 20-1356): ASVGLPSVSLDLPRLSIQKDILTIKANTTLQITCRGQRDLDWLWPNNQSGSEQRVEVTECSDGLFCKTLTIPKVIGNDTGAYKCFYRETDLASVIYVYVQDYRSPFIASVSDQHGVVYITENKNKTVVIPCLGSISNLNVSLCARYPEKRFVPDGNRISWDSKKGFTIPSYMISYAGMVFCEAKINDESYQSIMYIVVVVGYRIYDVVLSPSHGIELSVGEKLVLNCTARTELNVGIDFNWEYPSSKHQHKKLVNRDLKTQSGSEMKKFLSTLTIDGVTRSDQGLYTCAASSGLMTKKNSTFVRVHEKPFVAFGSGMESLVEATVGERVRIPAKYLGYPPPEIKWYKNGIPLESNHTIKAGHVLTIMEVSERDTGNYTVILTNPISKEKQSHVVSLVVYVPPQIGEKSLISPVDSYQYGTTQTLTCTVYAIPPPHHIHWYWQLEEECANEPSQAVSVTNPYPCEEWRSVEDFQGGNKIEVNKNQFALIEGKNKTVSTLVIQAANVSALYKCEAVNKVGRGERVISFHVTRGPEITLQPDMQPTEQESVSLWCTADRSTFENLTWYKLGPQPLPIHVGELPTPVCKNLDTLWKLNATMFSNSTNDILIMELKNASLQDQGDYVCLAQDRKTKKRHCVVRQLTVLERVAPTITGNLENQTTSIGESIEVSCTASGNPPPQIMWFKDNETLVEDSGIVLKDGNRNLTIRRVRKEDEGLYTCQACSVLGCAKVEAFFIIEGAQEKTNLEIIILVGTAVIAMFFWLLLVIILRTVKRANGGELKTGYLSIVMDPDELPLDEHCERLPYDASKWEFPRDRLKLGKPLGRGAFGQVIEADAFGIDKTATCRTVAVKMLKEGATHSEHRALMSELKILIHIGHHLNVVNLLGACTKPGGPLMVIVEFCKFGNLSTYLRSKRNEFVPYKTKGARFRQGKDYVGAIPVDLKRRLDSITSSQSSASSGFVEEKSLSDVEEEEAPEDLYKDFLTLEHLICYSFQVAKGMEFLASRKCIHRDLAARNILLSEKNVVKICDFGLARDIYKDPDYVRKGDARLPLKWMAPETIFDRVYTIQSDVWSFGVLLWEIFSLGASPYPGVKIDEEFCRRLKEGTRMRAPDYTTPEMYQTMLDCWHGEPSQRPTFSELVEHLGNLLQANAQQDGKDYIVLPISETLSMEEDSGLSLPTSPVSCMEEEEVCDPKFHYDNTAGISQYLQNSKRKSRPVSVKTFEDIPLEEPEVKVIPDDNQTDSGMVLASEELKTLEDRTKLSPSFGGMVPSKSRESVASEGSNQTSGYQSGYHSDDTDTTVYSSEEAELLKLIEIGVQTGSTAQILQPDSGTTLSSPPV
The assay can be described thus: Membrane VEGFR-2 relative quantification by flow cytometry. Format: cell-based. The note with it: for mVEGFR-2 relative detection, A-549 / mVEGFR-2 relative detection, HT-29 / mVEGFR-2 relative detection, MCF-7: 24 h, 100 or 10 μM (Table 7), sorafenib 10 μM, percentage referred to DMSO control; for Inhibition of membrane VEGFR-2, HT-29: with respect to untreated cells. The method, then: The presence of both targets in the membrane was relatively determined by using DMSO-treated cells as a negative control.
For the assay, 10^5 cells per well were incubated for 24 h with the corresponding dose of the tested compound in a total volume of 500 μL of their growth media.
In general terms: Flow cytometry measures light scatter and fluorescence of single cells or particles in a stream.

For assay [3], the system named is VEGFR-2 kinase activity. Description: ADP assay of kinase activity in HT-29 cells. It counts as cell-based, human. To be noted: 100 μM, 24 h; DMSO as negative control. The protocol:
Finally, to assess the VEGFR-2 inhibitory activity of the selected compounds, namely 21, 22, and 23, we performed an ADP assay. This is a very useful technique that measures kinase activity by monitoring ADP accumulation in cell cultures instead of ATP concentrations.
For the assay, we used HT-29 cells that were previously treated with a 100 μM concentration of 21, 22, and 23, and we used DMSO as a negative control.
The kinase inhibitory activity of the selected compounds was studied as follows: first 10^5 HT-29 cells were seeded on a 12 well-plate, and then they were treated with 100 μM of the selected compounds for 24 h. Afterward, cells were collected, and the kinase activity was determined from collected pellets by following the manufacturer’s instructions indicated in the ADP Colorimetric Assay Kit II (Abcam S.A. reference ab282932).

The subject of assay [4] is HMEC-1 cells. The assay can be described thus: Tube disruption on Matrigel (antivascular activity). To be noted: 100 μM added to 24 h networks, observed after another 24 h. Format: cell-based. The protocol:
The antivascular and antiangiogenic activities of the selected compounds, namely 21, 22, and 23, were settled by 3D Matrigel cell cultures. First, we studied the effect on a microvessel network from HMEC-1 cells. HMEC-1 cells were on Matrigel, and after 24 h, when organized capillary networks were formed, 100 μM of the corresponding compounds, 21–23, was added. After another 24 h, we compared the treated networks with the one that received no treatment (see Figure 5a–c).
Wells of a IBIDI 15-well μ-plate for angiogenesis were coated with 15 μL of Matrigel® (10 mg/mL, BD Biosciences Europe) at 4 °C. After gelatinization at 37 °C for 30 min, HMEC-1 cells were seeded at 2 × 10^4 cells/well in 25 μL of culture medium on top of the Matrigel and were incubated for 30 min at 37 °C while they were attached.
For the tube disruption assay (study of antivascular activity), after 24 h, we checked that the capillary networks were formed on wells, and then 100 μM of compounds was added. After 24 h of treatment, the cultures were observed again, and pictures of each well were taken.

Where “and” joins values, the source holds several entries; their conditions need not be identical. Identical values can stand only once.

Consider `Nc1ccc(-c2cn(Cc3ccccc3Cl)nn2)cc1` [Compound 21, 4-(1-(2-chlorobenzyl)-1H-1,2,3-triazol-4-yl)aniline], for which the IC50 (usually the concentration at which inhibition is half-maximal) in assay [1] was more than 100 µM. In addition, in assay [2], the “mVEGFR-2 relative detection, A-549” value is more than 100%; the “mVEGFR-2 relative detection, HT-29” value is on record as 92 ± 5%; the “mVEGFR-2 relative detection, MCF-7” value was more than 100%. Moreover, the “Kinase activity measured in HT-29 cell cultures” value (“Kinase activity measured” for short) in assay [3] stood at 46 ± 10%. The “Antivascular effect on formed HMEC-1 capillary networks” value (shortened to “Antivascular effect”) in assay [4] is given as “disturbance of the formed microvasculature-like network”.
In assay [1], `Nc1ccc(-c2cn(Cc3cccc(Cl)c3)nn2)cc1` [Compound 22, 4-(1-(3-chlorobenzyl)-1H-1,2,3-triazol-4-yl)aniline] registered an IC50 of more than 100 µM. Besides, in assay [2], the “mVEGFR-2 relative detection, A-549” value was more than 100%; the “Inhibition of membrane VEGFR-2, HT-29” value is given as approximately 40%; the “mVEGFR-2 relative detection, MCF-7” value is more than 100%. In addition, the “Kinase activity measured” value in assay [3] is listed as 33 ± 4%. Moreover, the “Antivascular effect” value in assay [4] was “disturbance of the formed microvasculature-like network”.
Consider `Nc1ccc(-c2cn(Cc3ccc(Cl)cc3)nn2)cc1` [Compound 23, 4-(1-(4-chlorobenzyl)-1H-1,2,3-triazol-4-yl)aniline], for which, in assay [1], the concentration for half-maximal inhibition (IC50) was more than 100 µM. In addition, in assay [2], the “mVEGFR-2 relative detection, A-549” value is on record as more than 100%; the “mVEGFR-2 relative detection, HT-29” value was 65% and 65 ± 4%; the “Inhibition of membrane VEGFR-2, HT-29” value is on record as approximately 40%; the “mVEGFR-2 relative detection, MCF-7” value is on record as more than 100%. Moreover, in assay [3], the “Kinase activity measured” value worked out at 31 ± 8%. In assay [4], the “Antivascular effect” value is “disturbance of the formed microvasculature-like network”.
